Laboratory results taken from US11732003B2, “Mechanical method of maintaining narrow residence time distributions in continuous flow systems” (priority 2017, dated 2023).
Like-named read-outs stand apart in the source and are kept apart here.

What was measured:
[1] = tested on: Phi6; settings: static, pH 3.6 (8.7 M acetic acid), mAb 5 mg/mL, 22-25° C.
Method: In this representative experiment, the purpose was to evaluate the inactivation kinetics of an enveloped bacteriophage virus (Phi6) at low pH conditions. The objective was to determine the exposure time required for complete inactivation.
A monoclonal antibody (mAb) was purified by standard Protein A chromatography and prepared at a concentration of 5 mg/mL. […] Human serum albumin (HSA) (0.25% v/v) was added for Phi6 stability. Following confirmation of pH, the virus spike was added to the sample reservoir containing the mAb and vortexed to ensure a well-mixed system. The Phi6 target spike level was 1×10^7 pfu (plaque forming units)/mL. Within 0.3 minutes of the virus addition, a 1 mL sample was removed and transferred to a tube containing a previously determined volume of 2 M Tris Base, pH 10 to neutralize (pH 6-8) the sample and quench the inactivation step. The tube was vortexed after the base addition. This process of removing and neutralizing a sample was repeated for each time point. These experiments were carried out at room temperature, 22-25° C. Control samples at the initial and final time points were also analyzed. For the control samples, the pH was maintained at the feed pH level (pH 6.3) but the samples were diluted similarly to the actual samples using the background buffer at pH 6.3.

[2] = tested on: xenotropic murine leukemia virus (XMuLV); settings: static, mAb 18 g/L; for Time to Complete Inactivation: XMuLV
Method: The purpose of this study was to evaluate the virus inactivation kinetics of xenotropic murine leukemia virus (XMuLV, an enveloped virus commonly used for clearance studies of monoclonal antibody products, under low pH conditions. The objective was to determine the exposure time required for complete inactivation.
Following confirmation of pH, the virus spike was added to the sample reservoir containing the mAb and vortexed to ensure a well-mixed system. The XMuLV target spike level was 1×10^7 TCID50/mL (TCID50=Tissue Culture Infection Dose) (4% spike v/v). Within 0.3 minutes of the virus addition, a 1 mL sample was removed and transferred to a tube containing a previously determined volume of 2 M Tris Base to neutralize (pH 6-8) the sample and quench the inactivation step. The tube was vortexed after the base addition. This process of removing and neutralizing a sample was repeated for each time point. These experiments were carried out at room temperature, 22-25° C. Control samples at the initial and final time points were also analyzed. For the control samples, the pH was maintained at the feed pH level but the samples were diluted similarly to the actual samples using the background buffer.
The neutralized samples were assayed for infectivity using the cell-based TCID50 infectivity assay using PG4 indicator cells (Bolton G, Cabatingan M, Rubino M, et al. Normal-flow virus filtration:detection and assessment of the endpoint in bio-processing. Biotechnol Appl Biochem 2005; 42: 133-42). To mitigate cytotoxicity and quench the virus inactivation, samples were diluted 1:50 with ten-fold serial dilutions in cell culture media and then 100 μl aliquots of each dilution were added to a 96-well plate. Following incubation at 37° C. in 5% CO2 for 7 days, infected wells were visually assessed for cytopathic effect (CPE). Titers and LRVs were calculated using standard methods (ICH. Guidance on Viral Safety Evaluation of Biotechnology Products Derived From Cell Lines of Human or Animal Origin. In: Use ICoHoTRfRoPfH, ed. Geneva, Switzerland: ICH, 1998). To determine the LRV at each time point, the titer of the time point was subtracted from the titer of the closest control time point.

[3] = tested on: Phi6; settings: in-line continuous flow, 1 M acetic acid added at 0.75 mL/min to 1 mL/min feed
Method: This representative example describes the use of a continuous flow system to carry out low pH virus inactivation.
A system consisting of a main feed pump, an acid addition pump, and a base addition pump was used to inactivate virus under continuous flow conditions. A mAb solution was spiked with Phi6 and was connected to the main feed pump inlet. The Phi6 target spike level was 1×10^8 pfu/mL. […] The feed flow rate was set to 1 mL/min. Acid was added into the main stream at a flow rate of 0.75 mL/min. The fluid then passed through a static mixer and a length of tubing designed to contain a particular volume (targeting a desired residence time). Different lengths of tubing were used to contain the required volume for each target average residence time (1, 2, 3, 4, 5, 15 min) after accounting for the dead volume from the valves and pH probe between the acid addition point and the beginning of the incubation chamber. […] At the outlet of the incubation chamber, the material was neutralized by the addition of base into the main line at a flow rate of 0.4 mL/min. The fluid passed through another static mixer and then the neutralized samples were collected at the outlet and assayed for infectivity using the plaque assay. These experiments were carried out at room temperature, 22-25° C. Control samples were also assayed. For the control samples, the pH was maintained at the feed pH level but the samples were diluted similarly to the actual samples using the background buffer.

## CC(=O)O [acetic acid]
[1]; inactivation time 1 min
  Phi6 Log Reduction Values (LRV): ≥6.8
[1]; inactivation time 2 min
  Phi6 Log Reduction Values (LRV): ≥6.8
[1]; inactivation time 3 min
  Phi6 Log Reduction Values (LRV): ≥6.8
[1]; inactivation time 4 min
  Phi6 Log Reduction Values (LRV): ≥6.8
[1]; inactivation time 5 min
  Phi6 Log Reduction Values (LRV): ≥6.8
[1]; inactivation time 15 min
  Phi6 Log Reduction Values (LRV): ≥6.8
[2]; pH 4.0 (8.7 M acetic acid)
  Time to Complete Inactivation: ≤15 min
[2]; pH 4.2 (8.7 M acetic acid)
  Time to Complete Inactivation: ≤30 min
[2]; pH 3.5 (8.7 M acetic acid), inactivation time 0.3 min
  XMuLV LRV: 4.0
[2]; pH 3.5 (8.7 M acetic acid), inactivation time 1 min
  XMuLV LRV: ≥5.4
[2]; pH 3.5 (8.7 M acetic acid), inactivation time 2 min
  XMuLV LRV: ≥5.4
[2]; pH 3.5 (8.7 M acetic acid), inactivation time 3 min
  XMuLV LRV: ≥5.4
[2]; pH 3.5 (8.7 M acetic acid), inactivation time 4 min
  XMuLV LRV: ≥5.4
[2]; pH 3.5 (8.7 M acetic acid), inactivation time 5 min
  XMuLV LRV: ≥5.5
[2]; pH 3.5 (8.7 M acetic acid), inactivation time 15 min
  XMuLV LRV: ≥5.5
[2]; pH 3.5 (8.7 M acetic acid), inactivation time 30 min
  XMuLV LRV: ≥5.5
[2]; pH 3.5 (8.7 M acetic acid), inactivation time 60 min
  XMuLV LRV: ≥5.5
[2]; pH 3.7 (8.7 M acetic acid), inactivation time 0.3 min
  XMuLV LRV: 3.6
[2]; pH 3.7 (8.7 M acetic acid), inactivation time 1 min
  XMuLV LRV: ≥5.5
[2]; pH 3.7 (8.7 M acetic acid), inactivation time 2 min
  XMuLV LRV: ≥5.5
[2]; pH 3.7 (8.7 M acetic acid), inactivation time 3 min
  XMuLV LRV: ≥5.5
[2]; pH 3.7 (8.7 M acetic acid), inactivation time 4 min
  XMuLV LRV: ≥5.5
[2]; pH 3.7 (8.7 M acetic acid), inactivation time 5 min
  XMuLV LRV: ≥5.7
[2]; pH 3.7 (8.7 M acetic acid), inactivation time 15 min
  XMuLV LRV: ≥5.7
[2]; pH 3.7 (8.7 M acetic acid), inactivation time 30 min
  XMuLV LRV: ≥5.7
[2]; pH 3.7 (8.7 M acetic acid), inactivation time 60 min
  XMuLV LRV: ≥5.7
[2]; pH 4.0 (8.7 M acetic acid), inactivation time 0.3 min
  XMuLV LRV: 1.6
[2]; pH 4.0 (8.7 M acetic acid), inactivation time 1 min
  XMuLV LRV: 4.7
[2]; pH 4.0 (8.7 M acetic acid), inactivation time 2 min
  XMuLV LRV: 5.2
[2]; pH 4.0 (8.7 M acetic acid), inactivation time 3 min
  XMuLV LRV: 5.3
[2]; pH 4.0 (8.7 M acetic acid), inactivation time 4 min
  XMuLV LRV: 5.2
[2]; pH 4.0 (8.7 M acetic acid), inactivation time 5 min
  XMuLV LRV: 5.6
[2]; pH 4.0 (8.7 M acetic acid), inactivation time 15 min
  XMuLV LRV: ≥5.4
[2]; pH 4.0 (8.7 M acetic acid), inactivation time 30 min
  XMuLV LRV: ≥5.4
[2]; pH 4.0 (8.7 M acetic acid), inactivation time 60 min
  XMuLV LRV: ≥5.4
[2]; pH 4.2 (8.7 M acetic acid), inactivation time 0.3 min
  XMuLV LRV: 1.5
[2]; pH 4.2 (8.7 M acetic acid), inactivation time 1 min
  XMuLV LRV: 3.3
[2]; pH 4.2 (8.7 M acetic acid), inactivation time 2 min
  XMuLV LRV: 3.5
[2]; pH 4.2 (8.7 M acetic acid), inactivation time 3 min
  XMuLV LRV: 3.9
[2]; pH 4.2 (8.7 M acetic acid), inactivation time 4 min
  XMuLV LRV: 4.0
[2]; pH 4.2 (8.7 M acetic acid), inactivation time 5 min
  XMuLV LRV: 4.2
[2]; pH 4.2 (8.7 M acetic acid), inactivation time 15 min
  XMuLV LRV: 4.6
[2]; pH 4.2 (8.7 M acetic acid), inactivation time 30 min
  XMuLV LRV: ≥5.7
[2]; pH 4.2 (8.7 M acetic acid), inactivation time 60 min
  XMuLV LRV: ≥5.7
[3]; average residence time 1 min
  Phi6 LRV: ≥6.8
[3]; average residence time 2 min
  Phi6 LRV: ≥6.8
[3]; average residence time 3 min
  Phi6 LRV: ≥6.8
[3]; average residence time 4 min
  Phi6 LRV: ≥6.8
[3]; average residence time 5 min
  Phi6 LRV: ≥6.8
[3]; average residence time 15 min
  Phi6 LRV: ≥6.8
